For orientation: IC50 means the point on the concentration scale where inhibition reaches its midpoint.

Our source for the IC50 values is patent US20150353495A1 (PORTOLA PHARMACEUTICALS, INC., priority 2010, published 2015).

Each structure is given as a SMILES string. Some results are limits rather than exact numbers.

Holding throughout (type): biochemical
Assay [1] concerns the target T1, JAK1 (Homo sapiens, UniProt P23458).
T1 construct: 5 μl of catalytic domain recombinant Kinase enzyme+Tyr peptide substrate (Invitrogen, CA); purchased Invitrogen
Put plainly: Z'-LYTE kinase assay JAK1. As to the method:
(§1) JAK and TYK2 tyrosine phosphorylation activity is measured using the Z′-LYTE™ Technology developed by Invitrogen Corporation (Carlsbad, Calif.). For JAK1, JAK2 and JAK3 the Z′-LYTE™ Kinase Assay Kit-Tyr6 Peptide (part number PV4122) was used. For TYK2 the Z′-LYTE™ Kinase Assay Kit-Tyr6 Peptide (part number PV3192) was used. The Z′-LYTE™ biochemical assay employs a fluorescence resonance energy transfer (FRET) coupled-enzyme format and is based on the differential sensitivity of phosphorylated and non-phosphorylated peptides to proteolitic cleavage. The assay uses a synthetic peptide substrate that is labelled with a donor fluorophore (coumarin) and an acceptor fluorophore (fluorescein) that make up a FRET pair. In the primary reaction (the Kinase Reaction), the kinase transfers the γ-phosphate of ATP to a single tyrosine residue on the substrate, while the presence of a kinase inhibitor in the primary reaction suppresses phosphorylation. In the secondary reaction (the Development Reaction), a site-specific protease (the Development Reagent) is added. The development buffer quenches the Kinase Reaction, while the protease recognizes and cleaves non-phosphorylated Z′-LYTE™ peptide substrate. Cleavage disrupts FRET between the donor and acceptor fluorophores on the non-phosphoryleted substrate, while uncleaved, phosphorylated substrate maintains FRET.
(§2) To test the ability of candidate molecules to inhibit JAK tyrosine phosphorylation activity, molecules are reconstituted in 100% DMSO and serially diluted 1:10 in polypropylene v-bottom microtiter plates. The candidate molecules are then diluted 1:25 into kinase buffer and 2.5 μl transferred into duplicate wells of a 384 well low volume black microtiter assay plate (Corning, USA). The final DMSO concentration in the assay is 1%. The kinase reaction contains 2.5 μl of a candidate molecule, 5 μl of catalytic domain recombinant Kinase enzyme+Tyr peptide substrate (Invitrogen, CA) and 2.5 μl ATP (Invitrogen, CA). The kinase reaction is allowed to procede for 1 hour at room temperature. The protease reaction is initiated by the addition of 5 μl Development Reagent (Invitrogen, CA). After 1 hour incubation at room temperature the fluorescence is measured using a FlexStation plate reader (Molecular Devices, Sunnyvale, Calif.).

The target in assay [2] is T2, JAK2 (Homo sapiens, UniProt O60674).
T2 construct: 5 μl of catalytic domain recombinant Kinase enzyme+Tyr peptide substrate (Invitrogen, CA); purchased Invitrogen
T2 sequence (O60674 849-1124 limits assumed): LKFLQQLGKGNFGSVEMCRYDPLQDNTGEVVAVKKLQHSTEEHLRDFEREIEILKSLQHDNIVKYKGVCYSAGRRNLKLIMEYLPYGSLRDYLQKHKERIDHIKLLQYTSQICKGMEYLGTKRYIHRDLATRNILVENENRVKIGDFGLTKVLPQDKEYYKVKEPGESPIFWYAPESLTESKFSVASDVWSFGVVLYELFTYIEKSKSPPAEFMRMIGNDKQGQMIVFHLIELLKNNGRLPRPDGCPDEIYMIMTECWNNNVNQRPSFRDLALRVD
Put plainly: Z'-LYTE kinase assay JAK2. As to the method: as §1, §2

The target in assay [3] is T3, JAK3 (Homo sapiens, UniProt P52333).
T3 construct: 5 μl of catalytic domain recombinant Kinase enzyme+Tyr peptide substrate (Invitrogen, CA); purchased Invitrogen
T3 sequence (P52333 822-1111 limits assumed): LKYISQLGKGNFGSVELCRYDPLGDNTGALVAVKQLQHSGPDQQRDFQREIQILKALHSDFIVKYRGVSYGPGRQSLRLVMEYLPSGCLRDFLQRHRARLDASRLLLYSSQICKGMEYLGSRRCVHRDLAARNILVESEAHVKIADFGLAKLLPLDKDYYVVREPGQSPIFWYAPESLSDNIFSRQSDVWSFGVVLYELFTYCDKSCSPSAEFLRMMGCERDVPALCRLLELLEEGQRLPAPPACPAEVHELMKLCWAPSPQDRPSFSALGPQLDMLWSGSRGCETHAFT
In words: Z'-LYTE kinase assay JAK3. On the procedure: as §1, §2

T1 sequence (P23458 875-1153 limits assumed): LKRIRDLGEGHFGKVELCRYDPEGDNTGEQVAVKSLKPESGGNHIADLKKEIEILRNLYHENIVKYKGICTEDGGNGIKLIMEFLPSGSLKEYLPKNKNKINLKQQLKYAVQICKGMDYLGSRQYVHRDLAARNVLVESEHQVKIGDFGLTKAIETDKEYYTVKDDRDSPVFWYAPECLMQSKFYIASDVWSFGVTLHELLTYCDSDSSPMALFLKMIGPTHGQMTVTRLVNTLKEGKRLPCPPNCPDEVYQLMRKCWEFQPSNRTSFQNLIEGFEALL

Consider `Cc1cc(Nc2cc(NCc3cccc(F)c3F)c(C(N)=O)cn2)ccc1C(=O)N1CCCC1` [Example 456, 4-(2,3-difluorobenzylamino)-6-(3-methyl-4-(pyrrolidine-1-carbonyl)phenylamino)nicotinamide], for which the IC50 was 100 to 1000 nM in assay [1], 10 to 100 nM in assay [2] and less than 1 nM in assay [3].
The corresponding values for `CS(=O)(=O)N1CCC(c2cccc(Nc3cc(NCc4ccccc4F)c(C(N)=O)cn3)c2)CC1` [Example 121, 4-(2-fluorobenzylamino)-6-(3-(1-(methylsulfonyl)piperidin-4-yl)phenylamino)nicotinamide] are 100 to 1000 nM, 100 to 1000 nM and 10 to 100 nM.
With `CCC(=O)N1CCC(c2ccc(Nc3cc(NCC4CCCCC4)c(C(N)=O)cn3)cc2)CC1` [Example 192, 4-(cyclohexylmethylamino)-6-(4-(1-propionylpiperidin-4-yl)phenylamino)nicotinamide], the results for the IC50 in assay [1], in assay [2] and in assay [3] were more than 1000 nM, 100 to 1000 nM and 10 to 100 nM, respectively.
The corresponding values for `CCC(=O)N(C)c1ccc(Nc2cc(NCc3cccc4ccsc34)c(C(N)=O)cn2)cc1` [Example 466, 4-(benzo[b]thiophen-7-ylmethylamino)-6-(4-(N-methylpropionamido)phenylamino)nicotinamide] are 100 to 1000 nM, 100 to 1000 nM and 1 to 10 nM.
As to `NC(=O)c1cnc(Nc2cccc(C3CCOCC3)c2)cc1NCc1cc(F)ccc1F` [Example 207, 4-(2,5-difluorobenzylamino)-6-(3-(tetrahydro-2H-pyran-4-yl)phenylamino)nicotinamide], the concentration for half-maximal inhibition (IC50) in assay [1] fell in the range of 100 to 1000 nM; in assay [2], 10 to 100 nM; in assay [3] it was 1 to 10 nM.
The corresponding values for `COc1ccc(Nc2cc(NCc3cncc(F)c3)c(C(N)=O)cn2)cc1` [Example 296, 4-((5-fluoropyridin-3-yl)methylamino)-6-(4-methoxyphenylamino)nicotinamide] are 100 to 1000 nM, 100 to 1000 nM and 10 to 100 nM.
`CNC(=O)Cc1ccc(Nc2cc(NCc3ccccc3)c(C(N)=O)cn2)cc1` [Example 340, 4-(benzylamino)-6-(4-(2-(methylamino)-2-oxoethyl)phenylamino)nicotinamide]: the IC50 in assay [1] fell in the range of 100 to 1000 nM; in assay [2], 100 to 1000 nM; in assay [3], 10 to 100 nM.
Regarding `NC(=O)c1cnc(Nc2ccc(C3CCOCC3)cc2)cc1NC1CCCCC1` [Example 157, 4-(cyclohexylamino)-6-(4-(tetrahydro-2H-pyran-4-yl)phenylamino)nicotinamide], the IC50 in assay [1] was more than 1000 nM; in assay [2], more than 1000 nM; in assay [3], 100 to 1000 nM.
As to `COc1ccc(Nc2cc(NCC3CCN(C(C)=O)CC3)c(C(N)=O)cn2)cc1` [Example 35, 4-((1-acetylpiperidin-4-yl)methylamino)-6-(4-methoxyphenylamino)nicotinamide], the IC50 in assay [1], in assay [2] and in assay [3] was more than 1000 nM in each case.
Consider `NC(=O)c1cnc(Nc2ccc(C3CCOCC3)cc2)cc1NCc1cn(CCN2CCCCC2)nn1` [Example 201, 4-((1-(2-(piperidin-1-yl)ethyl)-1H-1,2,3-triazol-4-yl)methylamino)-6-(4-(tetrahydro-2H-pyran-4-yl)phenylamino)nicotinamide], for which the IC50 in assay [1], in assay [2] and in assay [3] was more than 1000 nM throughout.
In the case of `CC(=O)N1CCN(c2ccc(Nc3cc(NCc4ccc(F)cc4F)c(C(N)=O)cn3)cc2)CC1` [Example 259, 6-(4-(4-acetylpiperazin-1-yl)phenylamino)-4-(2,4-difluorobenzylamino)nicotinamide], the figures for the IC50 in assay [1], in assay [2] and in assay [3] were more than 1000 nM, 100 to 1000 nM and 10 to 100 nM, respectively.
The corresponding values for `CN(C)C(=O)C1CN(c2ccc(Nc3cc(NCc4cccc5ccsc45)c(C(N)=O)cn3)cc2F)C1` [Example 349, 4-(benzo[b]thiophen-7-ylmethylamino)-6-(4-(3-(dimethylcarbamoyl)azetidin-1-yl)-3-fluorophenylamino)nicotinamide] are 100 to 1000 nM, 10 to 100 nM and 1 to 10 nM.
The corresponding values for `NC(=O)c1cnc(Nc2ccc(-n3cccn3)nc2)cc1NCc1ccccc1` [Example 278, 6-(6-(1H-pyrazol-1-yl)pyridin-3-ylamino)-4-(benzylamino)nicotinamide] are more than 1000 nM, more than 1000 nM and 100 to 1000 nM.
The matching figures for `Cc1cc(Nc2cc(NCc3cccc4[nH]ccc34)c(C(N)=O)cn2)ccc1C(=O)N1CCOCC1` [Example 462, 4-((1H-indol-4-yl)methylamino)-6-(3-methyl-4-(morpholine-4-carbonyl)phenylamino)nicotinamide]: 1 to 10 nM, 1 to 10 nM and less than 1 nM.
Regarding `NC(=O)c1cnc(Nc2ccc(C3CCOCC3)cc2)cc1NCc1ncccn1` [Example 175, 4-(pyrimidin-2-ylmethylamino)-6-(4-(tetrahydro-2H-pyran-4-yl)phenylamino)nicotinamide], the IC50 in assay [1] was more than 1000 nM; in assay [2] it was more than 1000 nM; in assay [3] it was 100 to 1000 nM.
For `CN(CC(F)(F)F)C(=O)c1ccc(Nc2cc(NCc3cncc(F)c3)c(C(N)=O)cn2)cc1` [Example 314, 4-((5-fluoropyridin-3-yl)methylamino)-6-(4-(methyl(2,2,2-trifluoroethyl)carbamoyl)phenylamino)nicotinamide], the IC50 in assay [1] was more than 1000 nM; in assay [2], 100 to 1000 nM; in assay [3], 10 to 100 nM.
The matching figures for `COc1ccc(Nc2cc(Nc3ccc(OC)cc3)c(C(N)=O)cn2)cc1` [Example 34, 4,6-bis(4-methoxyphenylamino)nicotinamide]: more than 1000 nM, more than 1000 nM and more than 1000 nM.
The matching figures for `C#CCNc1cc(Nc2ccc(C3CCOCC3)cc2)ncc1C(N)=O` [Example 184, 4-(prop-2-ynylamino)-6-(4-(tetrahydro-2H-pyran-4-yl)phenylamino)nicotinamide]: more than 1000 nM, more than 1000 nM and 100 to 1000 nM.
For `CCC(=O)N1CCC(c2ccc(Nc3cc(NCc4ncccn4)c(C(N)=O)cn3)cc2)CC1` [Example 180, 6-(4-(1-propionylpiperidin-4-yl)phenylamino)-4-(pyrimidin-2-ylmethylamino)nicotinamide], the values for the IC50 in assay [1], in assay [2] and in assay [3] were more than 1000 nM, more than 1000 nM and 100 to 1000 nM, respectively.
In the case of `N#Cc1ccc(Nc2cc(NCc3ccccc3)c(C(N)=O)cn2)cc1C#N` [Example 393], the IC50 in assay [1], in assay [2] and in assay [3] was more than 1000 nM throughout.
Turning to `CN(C(=O)C1CC1)c1ccc(Nc2cc(NCc3cncc(F)c3)c(C(N)=O)cn2)cc1` [Example 481, 4-((5-fluoropyridin-3-yl)methylamino)-6-(4-(N-methylcyclopropanecarboxamido)phenylamino)nicotinamide], the results for the IC50 in assay [1], in assay [2] and in assay [3] were 100 to 1000 nM, 100 to 1000 nM and 10 to 100 nM, respectively.
In the case of `CCC(=O)N1CC(c2ccc(Nc3cc(NCc4cccc(F)n4)c(C(N)=O)cn3)cc2)C1` [Example 490, 4-((6-fluoropyridin-2-yl)methylamino)-6-(4-(1-propionylazetidin-3-yl)phenylamino)nicotinamide], the IC50 in assay [1] fell in the range of 100 to 1000 nM; in assay [2], 100 to 1000 nM; in assay [3], 10 to 100 nM.
In the case of `CC(=O)N1CCC(CNc2cc(Nc3ccc(C(=O)N4CCCC4)cc3)ncc2C(N)=O)CC1` [Example 43, 4-((1-acetylpiperidin-4-yl)methylamino)-6-(4-(pyrrolidine-1-carbonyl)phenylamino)nicotinamide], the IC50 in assay [1] is more than 1000 nM; in assay [2], more than 1000 nM; in assay [3], 100 to 1000 nM.
As for `CN(C(=O)C1CC1)c1ccc(Nc2cc(NCc3cccc4ccsc34)c(C(N)=O)cn2)cc1` [Example 467, 4-(benzo[b]thiophen-7-ylmethylamino)-6-(4-(N-methylcyclopropanecarboxamido)phenylamino)nicotinamide], the IC50 was 100 to 1000 nM in assay [1], 100 to 1000 nM in assay [2] and 10 to 100 nM in assay [3].
Regarding `N#Cc1ccc(Nc2cc(NCc3ccccc3)c(C(N)=O)cn2)cc1` [Example 392], the figures for the IC50 in assay [1], in assay [2] and in assay [3] were more than 1000 nM, more than 1000 nM and 100 to 1000 nM, respectively.
